Laboratory results as given in US10800791B2, “Triazole ACC inhibitors and uses thereof” (Gilead Apollo, LLC, priority 2015, dated 2020).
In brackets after ≈: the same amount, converted by molar mass. Read-outs that look alike come from different tables or passages of the source.

Legend:
[1] = system: C. krusei; assay: Antifungal Activity Assay (broth microtiter MIC), C. krusei; assay type: cell-based, Candida krusei; details: Pichia kudriavzevii, ATCC6258, 48 h
Method in brief: (§1)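 Colonies from 24 h Sabouraud dextrose agar plates (35° C) are suspended in RPMI 1640+MOPS and diluted to give 2.5×10^3 CFU/mL in the wells. Plates are set up per CLSI M27-A3. Visual MIC is recorded at 48 h.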

[2] = system: Diplodia maydis (Dm); assay: Growth inhibition assay of fungal pathogens, Dm; assay type: cell-based; details: Stenocarpella maydis, 48 h
Method in brief: (§2)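 Spores diluted in 17% V8 liquid media and incubated with compound at final 50, 10, 2 ppm or 2, 0.4, 0.08 ppm (2% DMSO). OD600 plus visual ratings at 24 and 48 hours, blank-subtracted; percent growth inhibition from 48 h readings relative to 2% DMSO control.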

[3] = system: Fusarium virguliforme (Fv); assay: Growth inhibition assay of fungal pathogens, Fv; assay type: cell-based; details: 48 h
Method in brief: as §2

[4] = system: Rhizoctonia solani (Rs); assay: Growth inhibition assay of fungal pathogens, Rs; assay type: cell-based; details: 48 h
[5] = system: C. albicans; assay: Antifungal Activity Assay (broth microtiter MIC), C. albicans; assay type: cell-based, Candida albicans; details: Candida albicans, ATCC90028, 48 h
Method in brief: as §1

[6] = target: human (hACC2) (Homo sapiens, UniProt O00763); assay: In vitro ACC inhibition assay (ADP-Glo), hACC2; assay type: biochemical; details: 5 nM ACC2, 20 μM ATP, 20 μM acetyl-CoA
Sequence of human (hACC2) (O00763 whole entry): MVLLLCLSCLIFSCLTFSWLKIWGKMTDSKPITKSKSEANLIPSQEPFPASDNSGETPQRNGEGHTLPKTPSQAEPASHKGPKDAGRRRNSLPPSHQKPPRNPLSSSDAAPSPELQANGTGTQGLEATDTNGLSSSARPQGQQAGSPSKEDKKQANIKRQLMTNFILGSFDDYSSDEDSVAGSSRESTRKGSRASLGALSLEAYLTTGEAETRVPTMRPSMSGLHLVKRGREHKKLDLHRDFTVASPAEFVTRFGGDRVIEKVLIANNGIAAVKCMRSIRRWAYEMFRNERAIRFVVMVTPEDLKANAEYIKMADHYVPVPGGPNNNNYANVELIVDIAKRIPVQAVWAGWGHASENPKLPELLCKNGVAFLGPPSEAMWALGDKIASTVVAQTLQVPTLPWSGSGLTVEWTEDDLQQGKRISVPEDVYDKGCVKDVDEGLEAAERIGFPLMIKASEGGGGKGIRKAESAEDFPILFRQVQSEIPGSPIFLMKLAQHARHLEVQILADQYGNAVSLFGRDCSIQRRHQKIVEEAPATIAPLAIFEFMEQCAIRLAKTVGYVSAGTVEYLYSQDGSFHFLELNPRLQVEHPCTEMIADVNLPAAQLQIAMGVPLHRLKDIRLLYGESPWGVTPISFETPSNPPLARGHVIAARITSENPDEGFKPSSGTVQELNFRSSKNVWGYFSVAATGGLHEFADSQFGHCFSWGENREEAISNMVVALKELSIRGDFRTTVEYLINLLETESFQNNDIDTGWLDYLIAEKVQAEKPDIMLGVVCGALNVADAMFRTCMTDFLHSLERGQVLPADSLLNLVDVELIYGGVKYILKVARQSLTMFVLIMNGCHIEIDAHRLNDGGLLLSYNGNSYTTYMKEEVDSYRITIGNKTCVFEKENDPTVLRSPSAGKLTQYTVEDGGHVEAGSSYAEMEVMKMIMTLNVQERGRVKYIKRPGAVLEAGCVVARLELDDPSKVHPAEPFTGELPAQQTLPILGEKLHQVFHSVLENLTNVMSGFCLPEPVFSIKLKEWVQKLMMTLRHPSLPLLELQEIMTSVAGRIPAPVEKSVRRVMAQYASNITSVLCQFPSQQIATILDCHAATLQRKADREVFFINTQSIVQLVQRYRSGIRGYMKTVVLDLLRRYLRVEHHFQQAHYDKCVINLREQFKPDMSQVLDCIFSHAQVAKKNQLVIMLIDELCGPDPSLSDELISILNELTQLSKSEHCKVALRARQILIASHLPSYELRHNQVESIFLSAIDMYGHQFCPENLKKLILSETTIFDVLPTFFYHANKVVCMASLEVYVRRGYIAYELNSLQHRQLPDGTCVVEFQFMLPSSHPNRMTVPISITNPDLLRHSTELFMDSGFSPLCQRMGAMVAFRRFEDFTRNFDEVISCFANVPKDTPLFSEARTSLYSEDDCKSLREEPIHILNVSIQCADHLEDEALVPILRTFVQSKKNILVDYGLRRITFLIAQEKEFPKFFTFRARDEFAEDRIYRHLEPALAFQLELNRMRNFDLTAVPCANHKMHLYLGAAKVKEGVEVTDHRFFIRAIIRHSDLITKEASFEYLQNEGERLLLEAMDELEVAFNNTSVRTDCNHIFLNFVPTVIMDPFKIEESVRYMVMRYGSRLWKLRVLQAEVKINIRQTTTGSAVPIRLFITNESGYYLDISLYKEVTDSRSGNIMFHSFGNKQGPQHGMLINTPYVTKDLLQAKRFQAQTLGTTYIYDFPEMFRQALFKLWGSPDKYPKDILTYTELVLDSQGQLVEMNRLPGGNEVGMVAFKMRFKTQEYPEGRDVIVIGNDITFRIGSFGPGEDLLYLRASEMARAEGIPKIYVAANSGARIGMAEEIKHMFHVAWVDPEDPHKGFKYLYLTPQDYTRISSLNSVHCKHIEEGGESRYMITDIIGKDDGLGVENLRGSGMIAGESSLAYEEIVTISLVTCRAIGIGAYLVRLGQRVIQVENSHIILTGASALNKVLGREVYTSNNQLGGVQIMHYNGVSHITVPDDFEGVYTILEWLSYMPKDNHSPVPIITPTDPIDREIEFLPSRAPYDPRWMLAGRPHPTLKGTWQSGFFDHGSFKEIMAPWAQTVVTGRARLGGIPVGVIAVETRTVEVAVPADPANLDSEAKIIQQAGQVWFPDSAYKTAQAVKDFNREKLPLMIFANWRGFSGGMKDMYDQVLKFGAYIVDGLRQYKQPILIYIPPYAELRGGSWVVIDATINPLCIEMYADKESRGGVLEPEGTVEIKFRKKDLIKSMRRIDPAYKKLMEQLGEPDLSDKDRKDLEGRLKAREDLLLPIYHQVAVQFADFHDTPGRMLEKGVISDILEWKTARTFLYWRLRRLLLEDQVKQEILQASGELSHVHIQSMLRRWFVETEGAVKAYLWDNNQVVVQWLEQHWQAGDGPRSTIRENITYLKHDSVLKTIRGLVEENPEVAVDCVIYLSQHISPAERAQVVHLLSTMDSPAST
Method: The detailed procedure is as follows. […] 10 μL ADP glo reagent was added. […] 20 μL kinase detection reagent was added.

[7] = system: C. parapsilosis; assay: Antifungal Activity Assay (broth microtiter MIC), C. parapsilosis; assay type: cell-based, Candida parapsilosis; details: Lodderomyces parapsilosis, ATCC22019, 48 h
Method in brief: as §1

[8] = system: Botrtyis cinerea (Bc); assay: Growth inhibition assay of fungal pathogens, Bc; assay type: cell-based; details: 48 h
Method in brief: as §2

[9] = system: Phytophthora capsici (Pc); assay: Growth inhibition assay of fungal pathogens, Pc; assay type: cell-based; details: 48 h
Method in brief: as §2

[10] = read-out: MIC, C. krusei ATCC 6258, Table 3a, 3 replicates, MIC recorded at 48 h
[11] = read-out: MIC, C. krusei ATCC 6258, Table 3b (additional results), 3 replicates, MIC recorded at 48 h
[12] = read-out: Concentration at 90% Inhibition Dm, Diplodia maydis, growth inhibition at 48 hours vs 2% DMSO control
[13] = read-out: Concentration at 90% Inhibition Dm, Diplodia maydis, growth inhibition vs 2% DMSO control at 48 hours
[14] = read-out: Concentration at 90% Inhibition Fv, Fusarium virguliforme, growth inhibition at 48 hours vs 2% DMSO control
[15] = read-out: Concentration at 90% Inhibition Fv, Fusarium virguliforme, growth inhibition vs 2% DMSO control at 48 hours
[16] = read-out: Concentration at 90% Inhibition Rs, Rhizoctonia solani, mycelial plugs, growth inhibition at 48 hours vs 2% DMSO control
[17] = read-out: Concentration at 90% Inhibition Rs, Rhizoctonia solani, mycelial plugs, growth inhibition vs 2% DMSO control at 48 hours
[18] = read-out: MIC, C. albicans ATCC 90028, Table 3a, 3 replicates, MIC recorded at 48 h
[19] = read-out: MIC, C. albicans ATCC 90028, Table 3b (additional results), 3 replicates, MIC recorded at 48 h
[20] = read-out: MIC, C. parapsilosis ATCC 22019, Table 3a, 3 replicates, MIC recorded at 48 h
[21] = read-out: MIC, C. parapsilosis ATCC 22019, Table 3b (additional results), 3 replicates, MIC recorded at 48 h
[22] = read-out: Concentration at 90% Inhibition Bc, Botrtyis cinerea, growth inhibition at 48 hours vs 2% DMSO control
[23] = read-out: Concentration at 90% Inhibition Bc, Botrtyis cinerea, growth inhibition vs 2% DMSO control at 48 hours
[24] = read-out: Concentration at 90% Inhibition Pc, Phytophthora capsici, growth inhibition at 48 hours vs 2% DMSO control
[25] = read-out: Concentration at 90% Inhibition Pc, Phytophthora capsici, growth inhibition vs 2% DMSO control at 48 hours
[26] = Table 3a, ATCC 6258, 3 replicates, MIC recorded at 48 h, read-out: MIC, C. krusei ATCC 6258
[27] = Table 3b (additional results), ATCC 6258, 3 replicates, MIC recorded at 48 h, read-out: MIC, C. krusei ATCC 6258
[28] = Diplodia maydis, growth inhibition at 48 hours vs 2% DMSO control, read-out: Concentration at 90% Inhibition Dm
[29] = Diplodia maydis, growth inhibition vs 2% DMSO control at 48 hours, read-out: Concentration at 90% Inhibition Dm
[30] = growth inhibition at 48 hours vs 2% DMSO control, read-out: Concentration at 90% Inhibition Fv
[31] = growth inhibition vs 2% DMSO control at 48 hours, read-out: Concentration at 90% Inhibition Fv
[32] = mycelial plugs, growth inhibition at 48 hours vs 2% DMSO control, read-out: Concentration at 90% Inhibition Rs
[33] = mycelial plugs, growth inhibition vs 2% DMSO control at 48 hours, read-out: Concentration at 90% Inhibition Rs
[34] = Table 3a, ATCC 90028, 3 replicates, MIC recorded at 48 h, read-out: MIC, C. albicans ATCC 90028
[35] = Table 3b (additional results), ATCC 90028, 3 replicates, MIC recorded at 48 h, read-out: MIC, C. albicans ATCC 90028
[36] = Table 3a, ATCC 22019, 3 replicates, MIC recorded at 48 h, read-out: MIC, C. parapsilosis ATCC 22019
[37] = Table 3b (additional results), ATCC 22019, 3 replicates, MIC recorded at 48 h, read-out: MIC, C. parapsilosis ATCC 22019
[38] = Botrtyis cinerea, growth inhibition at 48 hours vs 2% DMSO control, read-out: Concentration at 90% Inhibition Bc
[39] = Botrtyis cinerea, growth inhibition vs 2% DMSO control at 48 hours, read-out: Concentration at 90% Inhibition Bc
[40] = growth inhibition at 48 hours vs 2% DMSO control, read-out: Concentration at 90% Inhibition Pc
[41] = growth inhibition vs 2% DMSO control at 48 hours, read-out: Concentration at 90% Inhibition Pc

Row | Structure (SMILES) | MIC [1, 10] [µg/mL] | MIC [1, 11] [µg/mL] | IC90 [2, 12] [µg/mL] | IC90 [2, 13] [µg/mL] | IC90 [3, 14] [µg/mL] | IC90 [3, 15] [µg/mL] | IC90 [4, 16] [µg/mL] | IC90 [4, 17] [µg/mL] | MIC [5, 18] [µg/mL] | MIC [5, 19] [µg/mL] | IC50 ([6]; Table 2a) [nM] | IC50 ([6]; Table 2b, additional results) [nM] | MIC [7, 20] [µg/mL] | MIC [7, 21] [µg/mL] | IC90 [8, 22] [µg/mL] | IC90 [8, 23] [µg/mL] | IC90 [9, 24] [µg/mL] | IC90 [9, 25] [µg/mL] | MIC [1, 26] [µg/mL] | MIC [1, 27] [µg/mL] | also measured
1 | COc1ccc(F)cc1[C@H](Cn1c(=O)n(C(C)(C)C(=O)N2CCOCC2)c(=O)c2c(C)c(-n3nccn3)sc21)OC(C)C [Compound I-5, (R)-1-(2-(5-fluoro-2-methoxyphenyl)-2-isopropoxyethyl)-5-methyl-3-(2-methyl-1-morpholino-1-oxopropan-2-yl)-6-(2H-1,2,3-triazol-2-yl)thieno[2,3-d]pyrimidine-2,4(1H,3H)-dione] | 1.1 to 2 (≈ 1.79 to 3.25 µM) | 2.01 to 4 (≈ 3.27 to 6.51 µM) | 2 (≈ 3.25 µM) | 2 (≈ 3.25 µM) | 0.4 (≈ 0.651 µM) | 0.4 (≈ 0.651 µM) | 0.4 (≈ 0.651 µM) | 0.4 (≈ 0.651 µM) | 2.1 to 4 (≈ 3.42 to 6.51 µM) | 2.01 to 4 (≈ 3.27 to 6.51 µM) | 10 to 40 | 10 to 40 | 2.1 to 4 (≈ 3.42 to 6.51 µM) | > 4.01 | 0.4 (≈ 0.651 µM) | 0.4 (≈ 0.651 µM) | > 50 | > 50 |  |  | 
2 | COc1ccc(F)cc1[C@H](Cn1c(=O)n(C(C)(C)C(=O)N2CCCCC2)c(=O)c2c(C)c(-n3nccn3)sc21)OC(C)C [Compound I-6, (R)-1-(2-(5-fluoro-2-methoxyphenyl)-2-isopropoxyethyl)-5-methyl-3-(2-methyl-1-oxo-1-(piperidin-1-yl)propan-2-yl)-6-(2H-1,2,3-triazol-2-yl)thieno[2,3-d]pyrimidine-2,4(1H,3H)-dione] | 0.25 to 1 (≈ 0.408 to 1.63 µM) | 0.25 to 1 (≈ 0.408 to 1.63 µM) | 0.08 (≈ 0.131 µM) | 0.08 (≈ 0.131 µM) | 0.08 (≈ 0.131 µM) | 0.08 (≈ 0.131 µM) | 0.08 (≈ 0.131 µM) | 0.08 (≈ 0.131 µM) | 0.25 to 1 (≈ 0.408 to 1.63 µM) | 0.25 to 1 (≈ 0.408 to 1.63 µM) | 10 to 40 | 10 to 40 | 1.1 to 2 (≈ 1.8 to 3.26 µM) | 1.01 to 2 (≈ 1.65 to 3.26 µM) | 0.08 (≈ 0.131 µM) | 0.08 (≈ 0.131 µM) | > 50 | > 50 |  |  | 
3 | COc1ccc(F)cc1[C@H](Cn1c(=O)n(C(C)(C)C(N)=O)c(=O)c2c(C)c(-n3nccn3)sc21)OCC(C)C [Compound I-8, (R)-2-(1-(2-(5-fluoro-2-methoxyphenyl)-2-isobutoxyethyl)-5-methyl-2,4-dioxo-6-(2H-1,2,3-triazol-2-yl)-1,4-dihydrothieno[2,3-d]pyrimidin-3(2H)-yl)-2-methylpropanamide] |  |  |  |  |  |  |  |  |  |  | 5 to 10 | 5 to 10 |  |  |  |  |  |  | 1.1 to 2 (≈ 1.97 to 3.58 µM) | 1.01 to 2 (≈ 1.81 to 3.58 µM) | IC90 [2, 28]: 2 µg/mL (≈ 3.58 µM); IC90 [2, 29]: 2 µg/mL (≈ 3.58 µM); IC90 [3, 30]: 2 µg/mL (≈ 3.58 µM); IC90 [3, 31]: 2 µg/mL (≈ 3.58 µM); IC90 [4, 32]: 2 µg/mL (≈ 3.58 µM); IC90 [4, 33]: 2 µg/mL (≈ 3.58 µM); MIC [5, 34]: 1.1 to 2 µg/mL (≈ 1.97 to 3.58 µM); MIC [5, 35]: 1.01 to 2 µg/mL (≈ 1.81 to 3.58 µM); MIC [7, 36]: 2.1 to 4 µg/mL (≈ 3.76 to 7.16 µM); MIC [7, 37]: 2.01 to 4 µg/mL (≈ 3.6 to 7.16 µM); IC90 [8, 38]: 2 µg/mL (≈ 3.58 µM); IC90 [8, 39]: 2 µg/mL (≈ 3.58 µM); IC90 [9, 40]: > 50 µg/mL; IC90 [9, 41]: > 50 µg/mL
4 | CCNC(=O)C(C)(C)n1c(=O)c2c(C)c(-n3nccn3)sc2n(C[C@H](OCC(C)C)c2cc(F)ccc2OC)c1=O [Compound I-9, (R)—N-ethyl-2-(1-(2-(5-fluoro-2-methoxyphenyl)-2-isobutoxyethyl)-5-methyl-2,4-dioxo-6-(2H-1,2,3-triazol-2-yl)-1,4-dihydrothieno[2,3-d]pyrimidin-3(2H)-yl)-2-methylpropanamide] |  |  |  |  |  |  |  |  |  |  | 5 to 10 | 1 to 5 |  |  |  |  |  |  | 0.25 to 1 (≈ 0.426 to 1.7 µM) | 0.25 to 1 (≈ 0.426 to 1.7 µM) | IC90 [2, 28]: 0.4 µg/mL (≈ 0.682 µM); IC90 [2, 29]: 0.4 µg/mL (≈ 0.682 µM); IC90 [3, 30]: 0.4 µg/mL (≈ 0.682 µM); IC90 [3, 31]: 0.4 µg/mL (≈ 0.682 µM); IC90 [4, 32]: 0.4 µg/mL (≈ 0.682 µM); IC90 [4, 33]: 0.4 µg/mL (≈ 0.682 µM); MIC [5, 34]: 2.1 to 4 µg/mL (≈ 3.58 to 6.82 µM); MIC [5, 35]: 1.01 to 2 µg/mL (≈ 1.72 to 3.41 µM); MIC [7, 36]: 2.1 to 4 µg/mL (≈ 3.58 to 6.82 µM); MIC [7, 37]: 1.01 to 2 µg/mL (≈ 1.72 to 3.41 µM); IC90 [8, 38]: 0.4 µg/mL (≈ 0.682 µM); IC90 [8, 39]: 0.4 µg/mL (≈ 0.682 µM); IC90 [9, 40]: > 50 µg/mL; IC90 [9, 41]: > 50 µg/mL
5 | COc1ccc(F)cc1[C@H](Cn1c(=O)n(C(C)(C)C(=O)N2CCCCC2)c(=O)c2c(C)c(-n3nccn3)sc21)OCC(C)C [Compound I-11, (R)-1-(2-(5-fluoro-2-methoxyphenyl)-2-isobutoxyethyl)-5-methyl-3-(2-methyl-1-oxo-1-(piperidin-1-yl)propan-2-yl)-6-(2H-1,2,3-triazol-2-yl)thieno[2,3-d]pyrimidine-2,4(1H,3H)-dione] | 1.1 to 2 (≈ 1.76 to 3.19 µM) | 0.25 to 1 (≈ 0.399 to 1.6 µM) | 0.4 (≈ 0.638 µM) | 0.4 (≈ 0.638 µM) | 2 (≈ 3.19 µM) | 2 (≈ 3.19 µM) | 0.4 (≈ 0.638 µM) | 0.4 (≈ 0.638 µM) | 1.1 to 2 (≈ 1.76 to 3.19 µM) | 0.25 to 1 (≈ 0.399 to 1.6 µM) | 10 to 40 | 10 to 40 | 1.1 to 2 (≈ 1.76 to 3.19 µM) | 1.01 to 2 (≈ 1.61 to 3.19 µM) | 0.4 (≈ 0.638 µM) | 0.4 (≈ 0.638 µM) | > 50 | > 50 |  |  | 
